Results: ChEMBL document CHEMBL2057130, “Bruton's tyrosine kinase inhibitors: approaches to potent and selective inhibition, preclinical and clinical evaluation for inflammatory diseases and B cell malignancies” (J Med Chem, 2012)

Legend:
[1] = Clearance in po dosed rat; type: ADME, organism-based; settings: in vivo
[2] = Inhibition of anti-IgM-induced human B cell proliferation; type: functional, cell-based
[3] = tested on: Mus musculus; experiment: Antiarthritic effect in mouse CIA model assessed as inhibition of clinical arthritis scores dosed prophylactically through subcutaneous route; type: functional
[4] = tested on: Macrophage; experiment: cells
Description: (§1) Inhibition of immobilized immune complex-stimulated TNFalpha production in macrophages

[5] = Oral bioavailability in dosed rat; type: ADME, organism-based; settings: in vivo
[6] = tested on: Blood; experiment: Inhibition of CD63 expression in human whole blood; type: functional, tissue-based
[7] = tested on: Splenocyte; experiment: Inhibition of mouse B-cell splenocyte activation by cell proliferation assay; type: functional, cell-based
[8] = biological target: T1, Tyrosine-protein kinase BTK (Homo sapiens, UniProt Q06187)
Description: Inhibition of human BTK by enzymatic assay

[9] = tested on: Blood; experiment: Inhibition of IgM-stimulated CD69 expression in human whole blood; type: functional, tissue-based
[10] = tested on: Rattus norvegicus; experiment: Inhibition of hypersensitive immune responses in rat passive cutaneous anaphylaxis model at 30 mg/kg; type: functional
[11] = tested on: Mus musculus; experiment: Inhibition of anti-IgD antibody stimulated CD69 expression in mouse CIA model dosed prophylactically at 3 to 100 mg/kg, po measured 24 hrs post dose; type: functional; settings: dose mg/kg 3-100
[12] = tested on: Macrophage
Description: as §1

[13] = tested on: Mast cell
Description: Inhibition of IgE-Fce cross-linking induced histamine release in mast cells

[14] = biological target: T1, Tyrosine-protein kinase BTK; experiment: Inhibition of BTK in human Ramos cells by FLIPR assay; type: cell-based

T1 sequence (Q06187 whole entry): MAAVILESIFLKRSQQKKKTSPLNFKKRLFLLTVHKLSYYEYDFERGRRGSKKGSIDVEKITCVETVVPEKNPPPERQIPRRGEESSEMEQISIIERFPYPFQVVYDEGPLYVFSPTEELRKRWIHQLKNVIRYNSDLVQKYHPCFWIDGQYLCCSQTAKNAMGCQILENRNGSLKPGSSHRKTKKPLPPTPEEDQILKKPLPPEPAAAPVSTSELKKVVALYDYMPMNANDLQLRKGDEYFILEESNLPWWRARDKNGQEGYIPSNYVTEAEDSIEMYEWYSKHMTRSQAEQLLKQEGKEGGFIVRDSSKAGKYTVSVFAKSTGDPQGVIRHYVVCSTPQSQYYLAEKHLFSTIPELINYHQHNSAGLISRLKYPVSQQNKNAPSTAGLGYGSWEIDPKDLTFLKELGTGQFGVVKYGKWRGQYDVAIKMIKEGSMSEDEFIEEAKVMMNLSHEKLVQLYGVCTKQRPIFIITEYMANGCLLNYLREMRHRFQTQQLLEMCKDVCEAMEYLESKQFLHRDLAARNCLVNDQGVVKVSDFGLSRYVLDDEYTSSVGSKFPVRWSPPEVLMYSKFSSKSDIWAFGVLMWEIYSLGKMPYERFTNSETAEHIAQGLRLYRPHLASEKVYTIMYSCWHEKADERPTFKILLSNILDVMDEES

Structure (SMILES): Cc1c(NC(=O)c2ccc(C(C)(C)C)cc2)cccc1-c1cn(C)c(=O)c(Nc2ccc(C(=O)N3CCOCC3)cc2)n1
- CL/F [1]: 86 mL/min/kg
- IC50 [2]: 0.042 µM
- inhibition (INH) [3]: >97%
- IC50 [4]: 0.025 µM
- bioavailability [5]: < 1%
- EC50 [6]: 1.2 µM

Structure (SMILES): Cc1ccccc1Nc1nc2cc(F)c(N(C)C(=O)/C=C/CN(C)C)cc2n2cncc12
- IC50 [7]: 0.00341 µM

Structure (SMILES): Nc1ncnc2c1c(-c1ccc(Oc3ccccc3)cc1)nn2C1CCCC1
- IC50 [8]: 0.0082 µM

Structure (SMILES): C=CC(=O)N1CCCC(c2c(Cl)c(-c3ccc(Oc4ccc(Cl)c(Cl)c4)c(OC)c3)c3c(N)ncnn23)C1 (stereo not given)
- IC50 [7]: 0.13 µM

Structure (SMILES): CC(C)(C)c1ccc(C(=O)Nc2cccc(-c3cn4ccnc4c(Nc4ccccc4)n3)c2)cc1
- IC50 [8]: 0.4 µM

Structure (SMILES): CN1CCN(c2ccc(Nc3cc(-c4cccc(N5CCOc6cc(C(C)(C)C)ccc6C5=O)c4CO)cn(C)c3=O)nc2)CC1
- IC50 ([9]; Homo sapiens, Blood): 0.004 µM

Structure (SMILES): CN1CCN(c2ccc(Nc3cc(-c4cccc(-n5ccc6cc(C7CC7)cc(F)c6c5=O)c4CO)cn(C)c3=O)nc2)CC1
- inhibition in vivo at 30 mg/kg [10]: 91%
- inhibition (INH) [11]: 50%
- IC50 [12]: 0.004 µM
- IC50 [13]: 0.0292 µM
- IC50 [9]: 0.017 µM

Structure (SMILES): Cc1c(-c2ccc(C(N)=O)c3[nH]c4cc(C(O)CO)ccc4c23)cccc1-n1cnc2ccc(F)cc2c1=O (stereo not given)
- IC50 [14]: 0.011 µM

Structure (SMILES): CC(C)(C)c1ccc(C(=O)N[C@@H]2CCCN(c3nc(Nc4ccc(C(=O)N5CCNCC5)cc4)c4nccn4n3)C2)cc1
- IC50 [7]: 0.056 µM

Structure (SMILES): Cc1c(NC(=O)c2ccc(N(C)C)cc2)cccc1-c1nc(Nc2ccc(C(=O)N3CCOCC3)cc2)c2nccn2n1
- IC50 [8]: 0.144 µM
- IC50 [7]: 0.142 µM

Structure (SMILES): Cc1c(NC(=O)c2ccc(N(C)C)cc2)cccc1-c1nc(Nc2ccc(C(=O)N3CCOCC3)cc2)c2ncc(N)n2n1
- IC50 [8]: 0.03 µM
- IC50 [7]: 0.032 µM

Structure (SMILES): O=C(N[C@@H]1CCCN(c2ncnc3[nH]ccc23)C1)[C@H](Nc1ccccc1)C1CC1
- IC50 [8]: < 0.1 µM

Structure (SMILES): O=C(CNc1ccccc1S(=O)(=O)N1CCCCC1)N[C@@H]1CCCN(c2ncnc3[nH]ccc23)C1
- IC50 [8]: < 0.1 µM

Structure (SMILES): CN1CCC(=C2c3ccccc3C=Cc3ccccc32)CC1 [CYPROHEPTADINE]
- inhibition in vivo at 30 mg/kg [10]: 69%
